Patent US20250073240A1, “NEW TREATMENT” (Verona Pharma PLC, priority 2023, published 2025)

Assays:
Format in all cases: in vivo, human
[1] = system: patients with moderate to severe COPD; assay: Phase 3 clinical study (Example 1): moderate/severe COPD exacerbations, by blood eosinophil count
Protocol: (§1) A clinical study was conducted to determine the efficacy of ensifentrine in treating COPD compared with placebo. Ensifentrine was administered by nebuliser at a dose of 3 mg twice daily (BID) for 24 weeks. The study was a multi-centre, randomized, double-blind, parallel-group, placebo-controlled trial with around 800 patients and 5:3 randomization.
(§2) The study population included patients aged 40-80 years with moderate to severe COPD (FEV1 30%-70% p.n., FEV1/forced vital capacity (FVC) ratio <0.7, with mMRC≥2). The randomization stratified (a) the use of stable background maintenance LAMA or LABA therapy use (approx. 50%. yes or no) and (b) cigarette smoking (current or former). Inhaled corticosteroid (ICS) maintenance therapy was permitted in up to 20% of patients under certain provisions.
(§3) The primary endpoint of the study was change from baseline in average FEV1 area under the curve (AUC)0-12 h post-dose at week 12. Secondary endpoints of the study included: frequency of moderate/severe COPD exacerbations over 24 Weeks; time to first moderate/severe COPD exacerbation; and effect of blood eosinophil count of patients.
Exacerbations were defined as worsening of 2 or more major symptoms (dyspnea, sputum volume, and sputum purulence) or worsening of any 1 major symptom together with any 1 of the following minor symptoms: sore throat, colds, fever without other cause, and increased cough or wheeze for at least 2 consecutive days. COPD exacerbations were considered to be of moderate severity if treatment with systemic corticosteroids and/or antibiotics was required and were considered to be severe if hospitalization was required.
The blood eosinophil count of patients was determined as follows. • A blood sample (2 mL) was collected in 2 mL EDTA tube and mixed immediately using gentle inversion 8-10 times. • Eosinophils were tested as part of the Complete Blood Count (CBC) test panel and are part of the White Blood Cell (WBC) differential. • Testing was performed on the Beckman Coulter DxH 800, with testing performed daily on ambient samples. • The haematology parameters that constitute the CBC panel were produced using methods and technologies within the DxH800, including Coulter principle and VCSn laser flow cell technology. • The WBC differential was obtained using VCSn technology (Volume, Conductivity and Scatter) based on simultaneous measuring of cell volume, high frequency conductivity and laser light scatter. This produced an automated WBC differential. • During analysis, if any parameter was abnormal or outside established limits the instrument flagged this as abnormal and produced a stained blood slide. • Blood film review was completed using manual microscopy and a technician confirmed any abnormal findings. • The technician could have also provided a manual WBC differential during blood film review or confirm the automated WBC differential. • Finalised results were then provided.
(§4) The investigational product and placebo were provided in 2.5 mL unit dose format in an ampule and administered via a nebuliser.

[2] = system: patients with moderate to severe COPD; assay: Phase 3 clinical study (Example 1): lung function, average FEV1 AUC0-12h
Protocol: as §1, §2, §3
Baseline FEV1 is the mean of the two measurements taken before study medication on the day of first dosing, i.e. <40 minutes and just prior to dosing, both pre-dose on day 1.
Average FEV1 AUC0-12 h is defined as area under the curve over 12 hours of the FEV1, divided by 12 hours.
as §4

[3] = system: patients with symptomatic, moderate-to-severe COPD; assay: Pooled analysis of two phase 3 trials (Example 2): moderate/severe exacerbation rate and time to first exacerbation
[4] = system: patients with moderate to severe COPD; assay: Phase 3 clinical study (Example 1): safety assessment, risk of pneumonia; conditions: patients with blood eosinophil count <300 cells/μL
Protocol: as §1, §2

[5] = Blood eosinophils > 150 cells/μL (n = 445)
[6] = Blood eosinophils ≤ 150 cells/μL (n = 343)
[7] = Blood eosinophils < 100 cells/μL (n = 10)
[8] = Blood eosinophils ≥ 100 cells/μL (n = 74)

COc1cc2c(cc1OC)-c1c/c(=N\c3c(C)cc(C)cc3C)n(CCNC(N)=O)c(=O)n1CC2 [Ensifentrine, N-(2-{(2E)-9,10-dimethoxy-4-oxo-2-[(2,4,6-trimethylphenyl)imino]-6,7-dihydro-2H-pyrimido[6,1-a]isoquinolin-3(4H)-yl}ethyl)urea]
Exacerbation Rate Reduction [1, 5]: 43% | Rate Ratio (95% Confidence Interval), COPD exacerbations [1, 5]: 0.57 (0.34, 0.97) | Exacerbation Rate Reduction [1, 6]: 42% | Rate Ratio (95% Confidence Interval), COPD exacerbations [1, 6]: 0.58 (0.30, 1.14) | reduction in relative risk of moderate or severe COPD exacerbation vs placebo ([1]; all patients, 3 mg BID, 24 weeks): approximately 40% | reduction in relative risk of moderate or severe COPD exacerbation vs placebo ([1]; subgroup blood eosinophil count <150 cells/μL): around 40% | reduction in relative risk of moderate or severe COPD exacerbation vs placebo ([1]; subgroup blood eosinophil count <300 cells/μL): around 50% | Average FEV1 (AUC)0-12 h post-dose at Week 12: Change from Baseline, CFB Least Squares Mean (95% CI) ([2]; 3 mg BID by nebuliser, week 12, n = 498): 48.2 (30.0, 66.5) mL | Average FEV1 (AUC)0-12 h post-dose at Week 12: Placebo-corrected CFB LS Mean Diff (95% CI) ([2]; 3 mg BID by nebuliser, week 12, vs placebo): 93.9 (64.5, 123.3) mL | improvement in lung function ([2]; all subgroups, 3 mg BID): statistically significant | Hazard Ratio (95% Confidence Interval), time to first moderate/severe exacerbation [3, 7]: 0.52 (0.22, 1.24) | Rate Ratio (95% Confidence Interval), moderate/severe exacerbation [3, 7]: 0.50 (0.22, 1.17) | Hazard Ratio (95% Confidence Interval), time to first moderate/severe exacerbation ([3]; Blood eosinophils < 300 cells/μL (n = 60)): 0.53 (0.37, 0.76) | Rate Ratio (95% Confidence Interval), moderate/severe exacerbation ([3]; Blood eosinophils < 300 cells/μL (n = 65)): 0.53 (0.37, 0.75) | Hazard Ratio (95% Confidence Interval), time to first moderate/severe exacerbation [3, 8]: 0.60 (0.43, 0.83) | Rate Ratio (95% Confidence Interval), moderate/severe exacerbation [3, 8]: 0.60 (0.43, 0.84) | Hazard Ratio (95% Confidence Interval), time to first moderate/severe exacerbation ([3]; Blood eosinophils ≥ 300 cells/μL (n = 24)): 0.79 (0.43, 1.45) | Rate Ratio (95% Confidence Interval), moderate/severe exacerbation ([3]; Blood eosinophils ≥ 300 cells/μL (n = 29)): 0.82 (0.45, 1.51) | reduction in exacerbation rate ([3]; blood eosinophil counts <100 cells/μL): about 50% | reduction in exacerbation rate ([3]; blood eosinophil counts ≤300 cells/μL): about 47% | number needed to treat (NNT) for the prevention of 1 exacerbation annually ([3]; pooled population): 6.25 patients | reduction in the moderate/severe exacerbation rate compared with placebo ([3]; pooled population, 3 mg BID over 24 weeks): 41% | reduction in risk (Cox proportional hazards model), time to first moderate/severe exacerbation ([3]; pooled population, 24 weeks): 41% | rate ratio, moderate/severe exacerbation rate ([3]; pooled population, 24 weeks, 95% CI 0.43-0.80): 0.59 | hazard ratio, time to first moderate/severe exacerbation ([3]; pooled population, 24 weeks, 95% CI 0.44-0.81): 0.59 | time to first moderate/severe exacerbation compared with placebo ([3]; pooled population, over 24 weeks, log rank test P=0.001): significantly delayed | transition from lower to higher exacerbation risk (group B to group E) compared with placebo ([3]; post hoc analysis, 24 weeks): numerically delayed | risk of pneumonia [4]: no significant increase
